Source: patent publication US20080070868A1, “Novel Thiazole Inhibitors of Fructose 1,6-bisphosphatase” (Metabasis Therapeutics, Inc., priority 2004, published 2008)

What was measured:
[1] = target: T1, human liver FBPase (Homo sapiens, UniProt P09467); assay: Inhibition of human liver FBPase; assay type: biochemical; settings: for IC50: purified recombinant human liver FBPase, 0.150 mM fructose 1,6-bisphosphate, 37° C., read-out: IC50 (hlFBPase)
T1 construct: made in house; host or cells: E. coli BL21
T1 sequence (P09467 2-338 limits assumed): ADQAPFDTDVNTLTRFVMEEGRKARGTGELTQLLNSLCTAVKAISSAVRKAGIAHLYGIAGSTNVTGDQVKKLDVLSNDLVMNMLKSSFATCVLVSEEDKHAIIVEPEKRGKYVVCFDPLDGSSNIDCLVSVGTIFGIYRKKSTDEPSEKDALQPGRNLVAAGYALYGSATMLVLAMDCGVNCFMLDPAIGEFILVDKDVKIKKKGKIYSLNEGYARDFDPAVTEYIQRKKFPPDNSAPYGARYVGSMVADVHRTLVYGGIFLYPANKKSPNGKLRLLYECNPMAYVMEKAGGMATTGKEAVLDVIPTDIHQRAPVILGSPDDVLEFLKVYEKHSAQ
Description: E. coli strain BL21 transformed with a human liver FBPase-encoding plasmid was obtained from Dr. M. R. El-Maghrabi at the State University of New York at Stony Brook. […] Enzymatic activity was measured spectrophotometrically in reactions that coupled the formation of product (fructose 6-phosphate) to the reduction of dimethylthiazoldiphenyltetrazolium bromide (MTT) via NADP^+ and phenazine methosulfate (PMS), using phosphoglucose isomerase and glucose 6-phosphate dehydrogenase as the coupling enzymes. Reaction mixtures (200 μl) were made up in 96-well microtitre plates, and consisted of 50 mM Tris-HCl, pH 7.4, 100 mM KCl, 5 mM EGTA, 2 mM MgCl2, 0.2 mM NADP, 1 mg/ml BSA, 1 mM MTT, 0.6 mM PMS, 1 unit/ml phosphoglucose isomerase, 2 units/ml glucose 6-phosphate dehydrogenase, and 0.150 mM substrate (fructose 1,6-bisphosphate). Inhibitor concentrations were varied from 0.01 μM to 10 μM. Reactions were started by the addition of 0.002 units of pure hlFBPase, and were monitored for 7 min. at 590 nm in a Molecular Devices Plate Reader (37° C.).

[2] = target: T2, human NAT1 (Homo sapiens, UniProt P18440); assay: N-acetylation by recombinant human NAT1; assay type: in vitro ADME; settings: for % Conversion NAT1: compound 100 μM, 37° C., 120 min, N-acyl product by HPLC; for susceptibility to N-acetylation by NAT1, in words: human recombinant NAT1
T2 construct: purchased BD Gentest (Bedford, Mass.); host or cells: insect cells
T2 sequence (P18440 1-290): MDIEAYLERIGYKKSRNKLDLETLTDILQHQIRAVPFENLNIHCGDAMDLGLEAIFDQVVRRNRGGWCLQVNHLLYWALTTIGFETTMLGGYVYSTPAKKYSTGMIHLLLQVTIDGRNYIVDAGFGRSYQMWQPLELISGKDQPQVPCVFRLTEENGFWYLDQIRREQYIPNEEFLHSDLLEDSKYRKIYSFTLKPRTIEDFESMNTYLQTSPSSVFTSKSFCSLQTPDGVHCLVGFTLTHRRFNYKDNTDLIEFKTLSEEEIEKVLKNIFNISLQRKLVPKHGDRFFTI
Description: (§1) Insect cell-expressed human NAT1 and NAT2 and control insect cytosol were obtained from BD Gentest (Bedford, Mass.). Compounds (100 μM) were incubated in 0.25 mL of NAT reaction cocktail consisting of 25 mM potassium phosphate pH 7.4 (at 25° C.), 1 mM EDTA, 1 mM DTT, 0.5 mM acetyl CoA, 5 mM acetyl-DL-carnitine, 20 u/mL acetyltransferase and either NAT1, NAT2 or control insect cytosol (0.1 mg/mL). Reactions were performed in an Eppendorf Thermomixer (37° C., 120 min.). At 0 and 120 min., 100 μl of each reaction was removed and added to a clean 1.7 mL tube containing 150 μl of 100% methanol. The tubes were vortexed and centrifuged at 14,000 rpm for 10 min. in an Eppendorf microcentrifuge (room temperature, 5 min., 14,000 rpm). The supernatants were analyzed by HPLC (Agilent 1100 series) using a Phenosphere C18 column (5 micron, 150×4.6 mm). The column was equilibrated with 20 mM potassium phosphate pH 4.5 or pH 6.2 (at 25° C.) and eluted with a linear gradient to 80% acetonitrile. The percent conversion of the compounds was calculated from the following equation: area of N-acyl product divided by (area of compound+area of N-acyl product), multiplied by 100.

[3] = system: Sprague-Dawley rats; assay: Glucose lowering following oral administration to the fasted, normal rat; assay type: in vivo; settings: maximum lowering relative to saline controls, 10 mg/kg oral, 18-h fasted rats
Description: Compounds were administered by oral gavage to 18-h fasted, Sprague-Dawley rats (250-300 g, n=3/4/group) at a dose of 10 mg/kg. Phosphonic acids (active moieties) were prepared in deionized water, and the solution adjusted to neutrality with sodium hydroxide. Prodrugs were dissolved in polyethylene glycol (mw 400). Blood samples were taken via tail vein nick immediately prior to dosing and at 1 h intervals thereafter. Blood glucose was analyzed by means of a HemoCue glucose analyzer (HemoCue Inc., Mission Viejo, Calif.). The table below indicates the maximum % glucose lowering achieved relative to control animals dosed with saline.

[4] = target: T3, human NAT2 (Homo sapiens, UniProt P11245); settings: for % Conversion NAT2: human, 120 min, 100 μM, pH 7.4
T3 sequence (P11245 1-290): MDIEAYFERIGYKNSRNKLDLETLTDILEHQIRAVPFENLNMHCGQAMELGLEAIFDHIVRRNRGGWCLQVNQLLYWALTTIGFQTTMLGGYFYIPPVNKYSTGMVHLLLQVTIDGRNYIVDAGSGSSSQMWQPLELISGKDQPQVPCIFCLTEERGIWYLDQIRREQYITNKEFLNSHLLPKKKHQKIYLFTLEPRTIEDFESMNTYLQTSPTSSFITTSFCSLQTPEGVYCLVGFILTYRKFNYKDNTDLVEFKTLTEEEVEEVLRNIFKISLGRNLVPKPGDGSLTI
Description: as §1

[5] = Variability of N-acetylation in human liver S9 fractions; assay type: in vitro ADME; settings: 100 μM, S9 10 mg/mL protein; donors with high or low N-acetylase activity
Description: The reactions are incubated, processed, and analyzed as described in Example C.

[6] = system: ZDF rats; assay: Blood glucose lowering in the Zucker Diabetic Fatty (ZDF) rat; assay type: in vivo
Description: Nine week old ZDF rats were fasted at 7 am and screened for hyperglycemia (BG>300 mg/dl) at 12:30 pm. […] Food was withheld for 6 to 9 h. Blood samples were collected intermittently from the tail vein and diluted 1:2 (v:v) in 20% glycerol-saline with 20 U/ml heparin. Blood glucose was determined by means of a Hemocue glucose analyzer (Hemocue Inc., Mission Viejo, Calif.) used according to the instructions of the manufacturer. Results were expressed as means ±standard errors of the mean (sem) for all values. Differences between treatment and vehicle-treated animals were evaluated using ANOVA with Dunnett's post-hoc analysis or Tukey-Kramer's post hoc analysis when all differences are compared. Differences are considered significant when p≦0.05.

In the case of `CCC(C)(C)C(=O)c1sc(N)nc1-c1ccc(P(=O)(O)O)o1` [Compound 1.2, {5-[2-amino-5-(2,2-dimethyl-butyryl)thiazol-4-yl]furan-2-yl}phosphonic acid], the IC50 [1] is reported as 25 nM, the “% Conversion NAT1” value [2] is reported as 0% and the “susceptibility to N-acetylation by NAT1, in words” value [2] is reported as “not metabolized”.

For `CCC(C)(CC)C(=O)c1sc(N)nc1-c1ccc(P(=O)(O)O)o1` [Compound 1.3, [5-(2-amino-5-(2-ethyl-2-methyl-butyryl)thiazol-4-yl)furan-2-yl]phosphonic acid], the IC50 [1] was 18 nM, the melting point was 202 to 205 °C and the “% Conversion NAT1” value [2] was 0%. For the same compound, the “susceptibility to N-acetylation by NAT1, in words” value [2] was “not metabolized”.

For `CC(=O)c1sc(N)nc1-c1ccc(P(=O)(O)O)o1` [Compound 1.4, [5-(2-amino-5-acetylthiazol-4-yl)furan-2-yl]phosphonic acid], the IC50 [1] was 66 nM and the melting point was > 207 °C.

In the case of `Nc1nc(-c2ccc(P(=O)(O)O)o2)c(C(=O)c2ccccc2)s1` [Compound 1.5, [5-(2-amino-5-benzoylthiazol-4-yl)furan-2-yl]phosphonic acid], the IC50 [1] is reported as 56 nM and the melting point is reported as > 210 °C.

In the case of `Nc1nc(-c2ccc(P(=O)(O)O)o2)c(C(=O)c2ccc(N3CCOCC3)c(Cl)c2)s1` [Compound 1.25, [5-(2-amino-5-(3-chloro-4-(1-morpholinyl)benzoyl)-thiazol-4-yl)furan-2-yl]phosphonic acid], the IC50 [1] is reported as 95 nM.

For `Nc1nc(-c2ccc(P(=O)(O)O)o2)c(C(=O)c2cccc(C(F)(F)F)c2)s1` [Compound 1.26, [5-(2-amino-5-(3-trifluoromethylbenzoyl)thiazol-4-yl)-furan-2-yl]phosphonic acid], the IC50 [1] was 119 nM.

For `Nc1nc(-c2ccc(P(=O)(O)O)o2)c(C(=O)c2ccccc2C(F)(F)F)s1` [Compound 1.27, [5-(2-amino-5-(2-trifluoromethylbenzoyl)thiazol-4-yl)-furan-2-yl]phosphonic acid], the IC50 [1] was 111 nM.

In the case of `Nc1nc(-c2ccc(P(=O)(O)O)o2)c(C(=O)c2ccc(-c3ccccc3)cc2)s1` [Compound 1.28, [5-(2-amino-5-(4-phenylbenzoyl)thiazol-4-yl)furan-2-yl]-phosphonic acid], the IC50 [1] is reported as 57 nM.

Compound `Nc1nc(-c2ccc(P(=O)(O)O)o2)c(C(=O)c2ccc3ccccc3c2)s1` [Compound 1.29, [5-(2-amino-5-(2-naphthylcarbonyl)thiazol-4-yl)furan-2-yl]-phosphonic acid] has an IC50 [1] of 60 nM.

`Nc1nc(-c2ccc(P(=O)(O)O)o2)c(C(=O)C2CCCC2)s1` [Compound 1.30, [5-(2-amino-5-cyclopentylcarbonylthiazol-4-yl)furan-2-yl]-phosphonic acid] showed an IC50 [1] of 14 nM.

For `Nc1nc(-c2ccc(P(=O)(O)O)o2)c(C(=O)c2ccc(N3CCCCC3)cc2)s1` [Compound 1.31, [5-(2-amino-5-(4-piperidinylbenzoyl)thiazol-4-yl)furan-2-yl]-phosphonic acid], the IC50 [1] was 73 nM.

In the case of `CN(C)c1ccc(C(=O)c2sc(N)nc2-c2ccc(P(=O)(O)O)o2)cc1` [Compound 1.32, [5-(2-amino-5-(4-(N,N-dimethylamino)benzoyl)thiazol-4-yl)-furan-2-yl]phosphonic acid], the IC50 [1] is reported as 105 nM.

Work on `CCC(C)C(=O)c1sc(N)nc1-c1ccc(P(=O)(O)O)o1` (stereo not shown) [Compound 1.33, [5-(2-amino-5-(2-methylbutyryl)thiazol-4-yl)furan-2-yl]-phosphonic acid] yielded an IC50 [1] of 11 nM.

With `Nc1nc(-c2ccc(P(=O)(O)O)o2)c(C(=O)C2CCC2)s1` [Compound 1.34, [5-(2-amino-5-cyclobutylcarbonylthiazol-4-yl)furan-2-yl]-phosphonic acid] the IC50 [1] was 16 nM.

With `CCOC(=O)[C@H](C)NP(=O)(N[C@@H](C)C(=O)OCC)c1ccc(-c2nc(N)sc2C(=O)C(C)(C)C)o1` [Compound 2.2, 2-amino-5-(2,2-dimethylpropionyl)-4-{[5-(N,N′-((S)-1-ethoxycarbonyl)-ethyl)phosphonamido]furan-2-yl}thiazole] the inhibition in vivo at 10 mg/kg [3] was 25%, the “susceptibility to N-acetylation by NAT2, in words” value (shortened to “susceptibility … by NAT2, in words”) [4] was “insusceptible” and the “% Conversion NAT2” value [4] was 0%.

With `CC(C)OC(=O)C(C)(C)NP(=O)(NC(C)(C)C(=O)OC(C)C)c1ccc(-c2nc(N)sc2C(=O)C(C)(C)C)o1` [Compound 2.3] the inhibition in vivo at 10 mg/kg [3] was 27%, the “susceptibility … by NAT2, in words” value [4] was “insusceptible” and the “% Conversion NAT2” value [4] was 0%.

Compound `CCOC(=O)CNP(=O)(NCC(=O)OCC)c1ccc(-c2nc(N)sc2C(=O)C(C)(C)C)o1` [Compound 2.4] has a melting point of 86 to 88 °C and an inhibition in vivo at 10 mg/kg [3] of 22%.

`CCOC(=O)C(C)(C)NP(=O)(NC(C)(C)C(=O)OCC)c1ccc(-c2nc(N)sc2C(=O)C(C)(CC)CC)o1` [Compound 2.5] showed a melting point of 157 to 160 °C and an inhibition in vivo at 10 mg/kg [3] of 15%.

Work on `CCC(C)(CC)C(=O)c1sc(N)nc1-c1ccc(P(=O)(NC(C)(C)C(=O)OC(C)C)NC(C)(C)C(=O)OC(C)C)o1` [Compound 2.6] yielded a melting point of 160 to 164 °C and an inhibition in vivo at 10 mg/kg [3] of 12%.

In the case of `Nc1nc(-c2ccc(P(=O)(O)O)o2)c(CC2CCCC2)s1` [Compound 3.2, reference compound], the “% Conversion NAT1” value [2] is reported as 22.3%.

With `CCC(C)(C)Cc1sc(N)nc1-c1ccc(P(=O)(O)O)o1` [Compound 3.3, reference compound] the “% Conversion NAT1” value [2] was 4.6%.

For `CC(C)c1sc(N)nc1-c1ccc(P(=O)(O)O)o1` [Compound 3.4, reference compound], the “% Conversion NAT1” value [2] was 14.0%.

For `CCC(C)Cc1sc(N)nc1-c1ccc(P(=O)(O)O)o1` (stereo not shown) [Compound 3.5, reference compound], the “% Conversion NAT1” value [2] was 14.2%.

With `CCOC(=O)[C@H](C)NP(=O)(N[C@@H](C)C(=O)OCC)c1ccc(-c2nc(N)sc2CC(C)C)o1` [Compound 4.6, reference compound] the IC50 [1] was > 100000 nM, the “conversion to N-acetylated metabolite in human liver S9 from various donors” value [5] was “high levels” and the “% Conversion NAT1” value [2] was 6.3%. The “susceptibility … by NAT2, in words” value [4] was “extensively metabolized”, the “% Conversion NAT2” value [4] was 62.4% and the “glucose lowering compared to vehicle-treated rats” value ([6]; 10 mg/kg oral in PEG-400, at 6 h, fasting ZDF rats) was 14%. For the same compound, the duration of action ([6]; ZDF rat, oral, 2.1 at 10-300 mg/kg) was ~3 h.

With `CC(=O)Nc1nc(-c2ccc(P(=O)(O)O)o2)c(C(=O)C(C)(C)C)s1` [N-acetyl-1.1, reference compound] the “rightward shift in potency in the FBPase assay on N-acetylation” value ([1]; N-acetyl-1.1 relative to 1.1) was 74.5 fold and the IC50 [1] was 2310 nM.
